Measurements reported in patent US12649750B2, “Macrocyclic compounds, compositions, and methods of using thereof” (Sionna Therapeutics Inc., priority 2022, dated 2026).

Assays:
[1] = biological target: T1, NBD1 (Homo sapiens, UniProt P13569); assay: Aggregation analysis using differential static light scattering (DSLS), thermal stability of NBD1 (ΔTagg); assay type: binding; settings: ΔTagg versus DMSO control, NBD1 0.2 mg/ml
T1 construct: Purified recombinant NBD1 was produced using previously described methods; made in house
T1 sequence (P13569 423-646 limits assumed): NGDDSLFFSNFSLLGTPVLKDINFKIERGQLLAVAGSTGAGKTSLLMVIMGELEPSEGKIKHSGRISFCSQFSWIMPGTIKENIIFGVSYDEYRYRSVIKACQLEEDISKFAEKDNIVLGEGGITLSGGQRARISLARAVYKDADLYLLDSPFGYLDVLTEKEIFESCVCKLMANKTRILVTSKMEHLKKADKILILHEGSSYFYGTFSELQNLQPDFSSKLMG
Method in brief: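 Read-out is ΔTagg: the aggregation temperature, taken at the inflection of the light-scattering curve, less the average of DMSO control wells. Recombinant NBD1 (0.2 mg/ml, pH7.6 buffer containing 2 mM ATP) with test compound was heated at 1° C. per minute up to 70° C.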

[2] = biological target: T2, CFTR (Homo sapiens, UniProt P13569, DEL508-508); assay: TECC24 AUC fold over DMSO @10 μM, CFTR-mediated transepithelial chloride transport in CF-HBE cells; assay type: cell-based; settings: test agent AUC divided by DMSO vehicle AUC, primary CF-HBE cells, ΔF508 homozygous donor, 48 hours incubation
T2 construct: Primary human bronchial epithelial cells from a ΔF508 homozygous CF donor; host or cells: primary human bronchial epithelial cells (CF-HBE), ΔF508 homozygous donor
T2 sequence (P13569 with tags, fused parts or gaps DEL508-508): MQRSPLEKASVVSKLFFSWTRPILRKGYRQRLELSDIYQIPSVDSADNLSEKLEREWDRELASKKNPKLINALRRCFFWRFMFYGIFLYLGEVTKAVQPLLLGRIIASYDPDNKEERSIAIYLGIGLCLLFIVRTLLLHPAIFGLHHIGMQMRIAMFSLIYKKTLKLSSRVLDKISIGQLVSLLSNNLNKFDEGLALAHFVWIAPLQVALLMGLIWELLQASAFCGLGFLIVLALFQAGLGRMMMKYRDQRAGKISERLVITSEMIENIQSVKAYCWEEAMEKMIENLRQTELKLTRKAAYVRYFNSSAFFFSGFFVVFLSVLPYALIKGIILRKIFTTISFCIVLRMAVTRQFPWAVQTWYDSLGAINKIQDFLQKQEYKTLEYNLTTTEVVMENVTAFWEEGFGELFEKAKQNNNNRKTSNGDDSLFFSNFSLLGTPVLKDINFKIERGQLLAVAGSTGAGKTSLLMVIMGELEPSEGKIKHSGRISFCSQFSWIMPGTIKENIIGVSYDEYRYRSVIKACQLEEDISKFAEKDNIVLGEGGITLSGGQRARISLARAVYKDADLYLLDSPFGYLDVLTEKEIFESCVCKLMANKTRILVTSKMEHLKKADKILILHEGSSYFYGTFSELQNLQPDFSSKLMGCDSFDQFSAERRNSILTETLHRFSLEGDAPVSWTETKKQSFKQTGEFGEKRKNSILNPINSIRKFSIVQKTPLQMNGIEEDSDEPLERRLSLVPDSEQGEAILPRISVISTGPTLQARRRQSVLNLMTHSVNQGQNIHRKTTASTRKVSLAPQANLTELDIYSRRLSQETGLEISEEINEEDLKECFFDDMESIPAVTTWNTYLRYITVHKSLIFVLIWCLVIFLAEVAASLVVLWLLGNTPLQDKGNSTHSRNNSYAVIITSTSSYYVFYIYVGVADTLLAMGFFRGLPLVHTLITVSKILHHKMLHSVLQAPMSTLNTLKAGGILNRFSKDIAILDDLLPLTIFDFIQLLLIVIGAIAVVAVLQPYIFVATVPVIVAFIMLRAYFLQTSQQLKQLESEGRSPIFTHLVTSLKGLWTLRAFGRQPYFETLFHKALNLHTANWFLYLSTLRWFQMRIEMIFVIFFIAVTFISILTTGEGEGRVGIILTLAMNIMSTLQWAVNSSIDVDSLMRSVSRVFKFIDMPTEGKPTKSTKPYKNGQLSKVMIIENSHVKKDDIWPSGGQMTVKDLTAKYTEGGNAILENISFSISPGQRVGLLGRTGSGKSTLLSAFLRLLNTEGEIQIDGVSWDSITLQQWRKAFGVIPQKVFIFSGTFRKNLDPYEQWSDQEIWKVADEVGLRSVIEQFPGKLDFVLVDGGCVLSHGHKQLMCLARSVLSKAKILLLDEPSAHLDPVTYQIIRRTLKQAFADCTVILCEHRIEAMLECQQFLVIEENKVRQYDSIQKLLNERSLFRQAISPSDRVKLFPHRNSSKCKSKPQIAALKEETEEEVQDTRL
Method in brief: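 Primary ΔF508-homozygous CF bronchial epithelial cells on inserts were incubated 48 h at 36.5 °C with compound in IL-13-containing medium. VT and TEER were then recorded in current-clamp mode (pH 7.4 HEPES bath) with benzamil 10 μM, forskolin 10 μM, then CFTR inhibitor-172 20 μM. The IEQ AUC between forskolin and inhibitor was divided by vehicle AUC.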

| SMILES | DSLS 3D (100 μM ΔT) [1] | TECC (AUC, 10 μM) [2] |
| --- | --- | --- |
| CC(Cc1cccc(C2(C)CCCC3(CC3)CS(=O)(=O)CCc3c(c(F)cc4[nH]ccc34)Oc3ccc(F)c(c3)-c3nc2nn3C)c1)C(=O)O (single isomer, unassigned) [Compound 13A, 3-[3-(22,28-difluoro-3,6-dimethyl-12,12-dioxo-spiro[24-oxa-12lambda6-thia-3,4,19,30-tetrazapentacyclo[23.3.1.12,5.015,23.016,20]triaconta-1(29),2(30),4,15,17,20,22,25,27-nonaene-10,1′-cyclopropane]-6-yl)phenyl]-2-methyl-propanic Acid] | C (a value greater than 10 °C and less than or equal to 25 °C is marked “C”) | B (a value between 12-20 is marked “B”) |
| CC(Cc1cccc(C2(C)CCCC3(CC3)CS(=O)(=O)CCc3c(c(F)cc4[nH]ccc34)Oc3ccc(F)c(c3)-c3nc2nn3C)c1)C(=O)O (single isomer, unassigned) [Compound 13B, 3-[3-(22,28-difluoro-3,6-dimethyl-12,12-dioxo-spiro[24-oxa-12lambda6-thia-3,4,19,30-tetrazapentacyclo[23.3.1.12,5.015,23.016,20]triaconta-1(29),2(30),4,15,17,20,22,25,27-nonaene-10,1′-cyclopropane]-6-yl)phenyl]-2-methyl-propanic Acid] | A (an ΔTagg value less than or equal to 5 °C is marked “A”) | C (a value between 20 and 80 is marked “C”) |
| [2H]C([2H])([2H])C1(c2cccc(/C=C/C(=O)O)c2)CCCC(C)(C)CS(=O)(=O)CCc2c(c(F)cc3[nH]ccc23)Oc2ccc(F)c(c2)-c2nc1nn2C (single isomer, unassigned) [Compound 15A, (E)-3-[3-[22,28-difluoro-3,10,10-trimethyl-12,12-dioxo-6-(trideuteriomethyl)-24-oxa-12lambda6-thia-3,4,19,30-tetrazapentacyclo[23.3.1.12,5.015,23.016,20]triaconta-1(29),2(30),4,15,17,20,22,25,27-nonaen-6-yl]phenyl]prop-2-enoic Acid] | C (a value greater than 10 °C and less than or equal to 25 °C is marked “C”) | A (a TECC value less than 12 is marked “A”) |
| [2H]C([2H])([2H])C1(c2cccc(/C=C/C(=O)O)c2)CCCC(C)(C)CS(=O)(=O)CCc2c(c(F)cc3[nH]ccc23)Oc2ccc(F)c(c2)-c2nc1nn2C (single isomer, unassigned) [Compound 15B, (E)-3-[3-[22,28-difluoro-3,10,10-trimethyl-12,12-dioxo-6-(trideuteriomethyl)-24-oxa-12lambda6-thia-3,4,19,30-tetrazapentacyclo[23.3.1.12,5.015,23.016,20]triaconta-1(29),2(30),4,15,17,20,22,25,27-nonaen-6-yl]phenyl]prop-2-enoic Acid] | B (a value above 5 °C and less than or equal to 10 °C is marked “B”) | A (a TECC value less than 12 is marked “A”) |
| [2H]C([2H])([2H])C1(c2cccc(/C=C(\C)C(=O)O)c2)CCCC(C)(C)CS(=O)(=O)CCc2c(c(F)cc3[nH]ccc23)Oc2ccc(F)c(c2)-c2nc1nn2C (single isomer, unassigned) [Compound 16A, (E)-3-[3-[22,28-difluoro-3,10,10-trimethyl-12,12-dioxo-6-(trideuteriomethyl)-24-oxa-12lambda6-thia-3,4,19,30-tetrazapentacyclo[23.3.1.12,5.015,23.016,20]triaconta-1(29),2(30),4,15,17,20,22,25,27-nonaen-6-yl]phenyl]-2-methyl-prop-2-enoic acid] | A (an ΔTagg value less than or equal to 5 °C is marked “A”) | A (a TECC value less than 12 is marked “A”) |
| [2H]C([2H])([2H])C1(c2cccc(/C=C(\C)C(=O)O)c2)CCCC(C)(C)CS(=O)(=O)CCc2c(c(F)cc3[nH]ccc23)Oc2ccc(F)c(c2)-c2nc1nn2C (single isomer, unassigned) [Compound 16B, (E)-3-[3-[22,28-difluoro-3,10,10-trimethyl-12,12-dioxo-6-(trideuteriomethyl)-24-oxa-12lambda6-thia-3,4,19,30-tetrazapentacyclo[23.3.1.12,5.015,23.016,20]triaconta-1(29),2(30),4,15,17,20,22,25,27-nonaen-6-yl]phenyl]-2-methyl-prop-2-enoic acid] | C (a value greater than 10 °C and less than or equal to 25 °C is marked “C”) | A (a TECC value less than 12 is marked “A”) |
| C/C(=C\c1cc(F)cc(C2(C)CCCC(C)(C)CS(=O)(=O)CCc3c(c(F)c(F)c4[nH]ccc34)Oc3ccc(F)c(c3)-c3nc2nn3C)c1)C(=O)O (single isomer, unassigned) [Compound 17A, (E)-3-(3-fluoro-5-((Z)-26,46,47-trifluoro-11,9,9,13-tetramethyl-7,7-dioxido-11H,41H-3-oxa-7-thia-4(5,4)-indola-1(5,3)-triazola-2(1,3)-benzenacyclotridecaphane-13-yl)phenyl)-2-methylacrylic acid] | B (a value above 5 °C and less than or equal to 10 °C is marked “B”) | A (a TECC value less than 12 is marked “A”) |
| C/C(=C\c1cc(F)cc(C2(C)CCCC(C)(C)CS(=O)(=O)CCc3c(c(F)c(F)c4[nH]ccc34)Oc3ccc(F)c(c3)-c3nc2nn3C)c1)C(=O)O (single isomer, unassigned) [Compound 17B, (E)-3-(3-fluoro-5-((Z)-26,46,47-trifluoro-11,9,9,13-tetramethyl-7,7-dioxido-1I1H,41H-3-oxa-7-thia-4(5,4)-indola-1(5,3)-triazola-2(1,3)-benzenacyclotridecaphane-13-yl)phenyl)-2-methylacrylic acid] | C (a value greater than 10 °C and less than or equal to 25 °C is marked “C”) | A (a TECC value less than 12 is marked “A”) |
| [2H]C([2H])([2H])C1(c2cccc(CC(C)C(=O)O)c2F)CCCC(C)(C)CS(=O)(=O)CCc2c(c(F)cc3[nH]ccc23)Oc2ccc(F)c(c2)-c2nc1nn2C (single isomer, unassigned) [Compound 18A, 3-[3-[22,28-difluoro-3,10,10-trimethyl-12,12-dioxo-6-(trideuteriomethyl)-24-oxa-12lambda6-thia-3,4,19,30-tetrazapentacyclo[23.3.1.12,5.015,23.016,20]triaconta-1(29),2(30),4,15,17,20,22,25,27-nonaen-6-yl]-2-fluoro-phenyl]-2-methyl-propanoic acid] | B (a value above 5 °C and less than or equal to 10 °C is marked “B”) | A (a TECC value less than 12 is marked “A”) |
| [2H]C([2H])([2H])C1(c2cccc(CC(C)C(=O)O)c2F)CCCC(C)(C)CS(=O)(=O)CCc2c(c(F)cc3[nH]ccc23)Oc2ccc(F)c(c2)-c2nc1nn2C (single isomer, unassigned) [Compound 18B, 3-[3-[22,28-difluoro-3,10,10-trimethyl-12,12-dioxo-6-(trideuteriomethyl)-24-oxa-12lambda6-thia-3,4,19,30-tetrazapentacyclo[23.3.1.12,5.015,23.016,20]triaconta-1(29),2(30),4,15,17,20,22,25,27-nonaen-6-yl]-2-fluoro-phenyl]-2-methyl-propanoic acid] | C (a value greater than 10 °C and less than or equal to 25 °C is marked “C”) | B (a value between 12-20 is marked “B”) |
| CC(Oc1cccc(C2(C)CCCC(C)(C)CS(=O)(=O)CCc3c(c(F)cc4[nH]ccc34)Oc3ccc(F)c(c3)-c3nc2nn3C)c1)C(=O)O (single isomer, unassigned) [Compound 19A, 2-[3-[22,28-difluoro-3,6,10,10-tetramethyl-12,12-dioxo-24-oxa-12 6-thia-3,4,19,30-tetrazapentacyclo[23.3.1.12,5.015,23.016,20]triaconta-1(29),2(30),4,15,17,20,22,25,27-nonaen-6-yl]phenoxy]propanoic Acid] | C (a value greater than 10 °C and less than or equal to 25 °C is marked “C”) | C (a value between 20 and 80 is marked “C”) |
| CC(Cc1cccc(C2(C#N)CCCC(C)(C)CS(=O)(=O)CCc3c(c(F)cc4[nH]ccc34)Oc3ccc(F)c(c3)-c3nc2nn3C)c1)C(=O)O (single isomer, unassigned) [Compound 20A, 3-[3-[6-cyano-22,28-difluoro-3,10,10-trimethyl-12,12-dioxo-24-oxa-12lambda6-thia-3,4,19,30-tetrazapentacyclo[23.3.1.12,5.015,23.016,20]triaconta-1(29),2(30),4,15,17,20,22,25,27-nonaen-6-yl]phenyl]-2-methyl-propanoic Acid] | C (a value greater than 10 °C and less than or equal to 25 °C is marked “C”) | C (a value between 20 and 80 is marked “C”) |
| CC(Cc1cccc(C2(C#N)CCCC(C)(C)CS(=O)(=O)CCc3c(c(F)cc4[nH]ccc34)Oc3ccc(F)c(c3)-c3nc2nn3C)c1)C(=O)O (single isomer, unassigned) [Compound 20B, 3-[3-[6-cyano-22,28-difluoro-3,10,10-trimethyl-12,12-dioxo-24-oxa-12lambda6-thia-3,4,19,30-tetrazapentacyclo[23.3.1.12,5.015,23.016,20]triaconta-1(29),2(30),4,15,17,20,22,25,27-nonaen-6-yl]phenyl]-2-methyl-propanoic acid] | A (an ΔTagg value less than or equal to 5 °C is marked “A”) | A (a TECC value less than 12 is marked “A”) |
